Assays:
[1] = system: Mus musculus; experiment: ED50 value as cholinergic agonism by measuring lacrimation in mice (in vivo); assay type: functional
[2] = system: Mus musculus; experiment: ED50 value as cholinergic agonist by measuring tremors in mice (in vivo); assay type: functional
[3] = system: Mus musculus; experiment: ED50 value as cholinergic agonist by measuring salivation in mice (in vivo); assay type: functional
[4] = system: Mus musculus; experiment: ED50 value determined as oxotremorine antagonism by measuring lacrimation in mice (in vivo); assay type: functional
[5] = system: Mus musculus; experiment: ED50 value determined as oxotremorine antagonism by measuring tremors in mice (in vivo); assay type: functional
[6] = system: Mus musculus; experiment: ED50 value determined as oxotremorine antagonism by measuring salivation in mice (in vivo); assay type: functional
[7] = molecular target: Muscarinic acetylcholine receptor; experiment: Binding affinity to muscarinic acetylcholine receptor was determined in presence of [3H]OXO-M radioligand (in vitro); assay type: protein assay
[8] = molecular target: Muscarinic acetylcholine receptor; experiment: Binding affinity to muscarinic acetylcholine receptor was determined in presence of [3H]QNB radioligand (in vitro); assay type: protein assay
[9] = molecular target: Muscarinic acetylcholine receptor (Rattus norvegicus) (UniProt P08482+P08483+P08485+P08911+P10980); experiment: Ratio of Ki value for QNB to that of Ki value for Oxo-M.; assay type: protein assay

SMILES	ED50 [1] [mg/kg]	ED50 [2] [mg/kg]	ED50 [3] [mg/kg]	ED50 [4] [mg/kg]	ED50 [5] [mg/kg]	ED50 [6] [mg/kg]	Ki [7] [nM]	Ki [8] [nM]	Ki ratio [9]
COC(=O)N(C)C(C)C#CCN(C)C (stereo unspecified)	17.3	11.8	17.3	> 100	> 100	> 100	16	> 10000	
CC(C#CCN1CCCC1)N1CCN(C)C1=O (stereo unspecified)	> 30	> 30	> 30	4.5		25	13	130	10
Cc1cn(CC#CCN2CCCC2=O)c(C)n1	> 100	> 100	> 100	8		14.2	68	160	2.4
O=C1CCCN1CC#CCn1cncn1	> 100	> 100	> 100	> 100	> 100	> 100	> 10000	> 10000	
Cc1nccn1CC#CCN1CCCC1=O		0.25	0.37	0.45	> 100	> 100	0.3	3.8	13
COC(=O)N(C)CC#CCn1cncc1C	> 100	4.5		3	> 100	5.4	36	1001	28
CN1CCN(CC#CCN2CCCC2)C1=O	0.3	0.14	0.21	> 3		> 3	2.7	180	67
CC(C#CCn1ccnc1)N1CCCC1=O (stereo unspecified)	> 100	> 100	> 100	2		3.7	33.5	556	17
CN(C)CC#CCn1ccn(C)c1=O	8	5.4	8	> 100		> 100	37	> 10000	
CCOC(=O)N(C)CC#CCn1ccnc1	> 100	> 100	> 100	97	> 100	97	206	> 10000	
CC1CCC(=O)N1CC#CCn1ccnc1 (stereo unspecified)	> 100	> 100	> 100	0.54		1.1	23	171	7.4
O=C1CCCN1CC#CCN1CCCC1 [OXOTREMORINE]	0.28		0.221					193	386
CCOC(=O)N(C)C(C)C#CCn1ccnc1 (stereo unspecified)	> 100	> 100	> 100	54	> 100	66	273	> 10000	
CC(=O)N(C)CC#CCN(C)C	1.73	0.97	1.73	> 10	> 10	> 10	4.2	> 10000	
CC(=O)N(C)C(C)C#CCn1ccnc1C (stereo unspecified)	> 100	> 100	> 100	0.05		0.2	1.6	19	12
Cc1cncn1CC#CCN1CCN(C)C1=O		2.5	14	14	> 100	> 100	8.6	381	44
CN(C)CC#CCN(C)C(=O)N(C)C	6.6	2	8	> 100	> 100	> 100	16	> 10000	
Cc1cncn1CC#CCN(C)C(=O)N(C)C	> 100	45.2		9.7	> 100	11.8	82	> 10000	
CN(C)CC#CCN1CCN(C)C1=O	0.54	0.37	0.54	> 10		> 10	4.5	180	40
Cc1cn(CC#CCN2CCCC2=O)cn1	> 100		> 100	14.2	> 100	37	10.3	377	37
CC(=O)NCC#CCn1cncc1C	66		> 100	66	> 100	66	213	> 10000	

— ChEMBL document CHEMBL1125599, “Cholinergic activity of acetylenic imidazoles and related compounds” (J Med Chem, 1991)
